Reference: US20200163984A1, “USE OF ISOVALERYL SPIRAMYCIN I, II AND/OR III IN MANUFACTURING MEDICAMENT FOR TREATING AND/OR PREVENTING TUMOR, AND MEDICAMENT” (SHENYANG FUYANG PHARMACEUTICAL TECHNOLOGY CO., LTD., priority 2017, published 2020)

What was measured:
[1] = tested on: transplanted tumor of mouse H22 liver cancer; assay: Transplanted tumor of mouse H22 liver cancer; conditions: for Tumor Volume (mm3) (d30): d 30; for Body Weight (g) (d1) / Body Weight (g) (d 7): mouse, in vivo
Experimental: The H22 cell strains cryopreserved in liquid nitrogen were resuscitated in Kunming mice. After 3 generations, the ascites of Kunming mice were taken and placed in a 50 ml centrifuge tube in which 10 ml of 0.9% normal saline was added, and then centrifuging was performed at 1000 rpm for 5 min at room temperature, and the obtained supernatant was removed. Then 10 ml of 0.9% normal saline was added to the tube to blow and mix well, and then the mixture was diluted to 5×10^6 live cells/ml with normal saline after counting. The tube was stored in ice water, and 75% ethanol was used to disinfect the skin under the right armpits of the mice. Each Kunming mouse was soon inoculated subcutaneously with 0.2 ml of the cells at the armpit of the right forelimb.
In the H22 liver cancer model, the mice inoculated with the tumor were randomly divided into groups with 10 mice in each group on the next day of inoculation. The groups included: a model control group, a positive drug cyclophosphamide control group (CTX, 26 mg/kg), isovaleryl spiramycin I groups with doses of 13, 26 and 52 mg/kg; isovaleryl spiramycin II groups with doses of 13, 26 and 52 mg/kg; isovaleryl spiramycin III groups with doses of 13, 26 and 52 mg/kg. Each group was continuously administered intragastrically for 7 days with a dose of 20 ml/kg.
The tumor-bearing mice were weighed and sacrificed the next day after the last administration. The subcutaneous tumors were dissected and weighed. The average tumor weight of each group is calculated, and the tumor inhibition rate is calculated.
Tumor inhibition rate=(1−T/C)×100%
T: average tumor weight of the drug-administered group; C: average tumor weight of the blank control group.

[2] = tested on: transplanted tumor of human renal clear cell adenocarcinoma cell 786-O; assay: 786-O transplanted tumor in nude mice; conditions: for Tumor Volume (mm3) (d 1): d1
Experimental: (§1) 786-O cells in a logarithmic growth phase were taken and subjected to a trypan blue exclusion experiment showing that the cell viability was more than 95%, then the cells were subjected to trypsinization, centrifugation, and supernatant removal. Then cell concentration was adjusted to 1×10^7/ml with matrigel, then each nude mouse was inoculated subcutaneously with 0.2 ml of cells at its right armpit and recorded as the first day of inoculation. When the tumor grows to be greater than or equal to 100 mm^3, the mice were randomly divided into 11 groups with 6 mice in each group: a model group, a cyclophosphamide group, isovaleryl spiramycin I groups with doses of 25, 50 and 100 mg/kg, isovaleryl spiramycin II groups with doses of 25, 50 and 100 mg/kg, and isovaleryl spiramycin III groups with doses of 25, 50 and 100 mg/kg. Each group was continuously administered intragastrically for 30 days with a dose of 20 ml/kg. The mice were sacrificed the next day after drug withdrawal and the indicators were tested. The long diameter and short diameter of the tumor, and the body weight of each mouse were recorded every 3 days from drug administration to nude mouse sacrifice.
(§2) The body weight of the nude mice and the long diameter (a) and short diameter (b) of the transplanted tumor were measured every 3 days, and the tumor volume (v), relative tumor volume (RTV) and relative tumor proliferation rate (T/C) are calculated respectively according to the following formulas, wherein V=a×b^2/2; RTV=V/V0 (V0 is the tumor volume before administration, V is the tumor volume before sacrifice), and T/C (%)=treatment group RTV/model control group RTV×100%.
(§3) Each mouse was weighed and sacrificed. After the tumor was completely stripped off from the body of the mouse, the non-tumor tissues such as blood stains and fat were removed to weigh the tumor and calculate the tumor growth inhibition rate. The average tumor weight of each group of mice is used as an indicator of efficacy. Tumor growth inhibition rate (%)=(1−the average tumor weight of the treatment group/the average tumor weight of the model group)×100%.

[3] = tested on: transplanted tumor of human gastric adenocarcinoma cell SGC7901; assay: SGC7901 transplanted tumor in nude mice
Experimental: as §1, with “Then” for “786-O cells in a logarithmic growth phase were taken and subjected to a trypan blue exclusion experiment showing that the cell viability was more than 95%, then the cells were subjected to trypsinization, centrifugation, and supernatant removal. Then”
as §2, §3

[4] = 786-O, high dose (100 mg/kg in method) i.g. 30 days
[5] = 786-O, low dose (25 mg/kg in method) i.g. 30 days
[6] = 786-O, medium dose (50 mg/kg in method) i.g. 30 days
[7] = SGC7901, 12.5 mg/kg (low dose) i.g. 30 days
[8] = SGC7901, 25 mg/kg (medium dose) i.g. 30 days
[9] = SGC7901, 50 mg/kg (high dose) i.g. 30 days

Which results are given for `CCC(=O)O[C@@H]1CC(=O)O[C@H](C)C/C=C/C=C/[C@H](O[C@H]2CC[C@H](N(C)C)[C@@H](C)O2)[C@H](C)C[C@H](CC=O)[C@H](O[C@@H]2O[C@H](C)[C@@H](O[C@H]3C[C@@](C)(O)[C@@H](OC(=O)CC(C)C)[C@H](C)O3)[C@H](N(C)C)[C@H]2O)[C@H]1OC` [Isovaleryl spiramycin III, isovaleryl spiramycin III]?
growth of H22 liver cancer in mice ([1]; 13, 26 and 52 mg/kg i.g. 7 days): significantly inhibit; Relative Tumor Proliferation Rate (T/C) ([1]; dose 12.5 mg/kg): 69.68; Relative Tumor Volume (RTV) ([1]; dose 12.5 mg/kg): 6.92 ± 1.88; Tumor Volume (mm3) (d 1) ([1]; dose 12.5 mg/kg): 121.58 ± 13.44 mm3; Tumor Volume (mm3) (d30) ([1]; dose 12.5 mg/kg): 824.36 ± 143.90 mm3; Inhibition Rate (%) ([1]; dose 13 mg/kg): 33.55%; Tumor ([1]; dose 13 mg/kg): 1.01 ± 0.22 g; Relative Tumor Proliferation Rate (T/C) ([1]; dose 25 mg/kg): 56.90; Relative Tumor Volume (RTV) ([1]; dose 25 mg/kg): 5.65 ± 1.74; Tumor Volume (mm3) (d 1) ([1]; dose 25 mg/kg): 118.16 ± 21.72 mm3; Tumor Volume (mm3) (d30) ([1]; dose 25 mg/kg): 650.32 ± 171.23 mm3; Inhibition Rate (%) ([1]; dose 26 mg/kg): 44.08%; Tumor ([1]; dose 26 mg/kg): 0.85 ± 0.34 g; Relative Tumor Proliferation Rate (T/C) ([1]; dose 50 mg/kg): 43.45; Relative Tumor Volume (RTV) ([1]; dose 50 mg/kg): 4.31 ± 1.65; Tumor Volume (mm3) (d 1) ([1]; dose 50 mg/kg): 122.15 ± 49.44 mm3; Tumor Volume (mm3) (d30) ([1]; dose 50 mg/kg): 468.19 ± 110.04 mm3; Inhibition Rate (%) ([1]; dose 52 mg/kg): 51.97%; Tumor ([1]; dose 52 mg/kg): 0.73 ± 0.45 g; Body Weight (g) (d1) ([1]; 13 mg/kg): 23.67 ± 3.73 g; Body Weight (g) (d 7) ([1]; 13 mg/kg): 26.33 ± 1.43 g; Body Weight (g) (d1) ([1]; 26 mg/kg): 24.13 ± 1.46 g; Body Weight (g) (d 7) ([1]; 26 mg/kg): 27.47 ± 1.21 g; Body Weight (g) (d1) ([1]; 52 mg/kg): 24.32 ± 1.12 g; Body Weight (g) (d 7) ([1]; 52 mg/kg): 27.35 ± 0.80 g; Inhibition Rate (%) ([2]; 786-O nude mice, 25 mg/kg): 35.80%; Relative Tumor Proliferation Rate (T/C) ([2]; 786-O nude mice, 25 mg/kg): 73.13%; Relative Tumor Volume (RTV) ([2]; 786-O nude mice, 25 mg/kg): 18.90 ± 3.60; Tumor Weight ([2]; 786-O nude mice, 25 mg/kg): 1.38 ± 0.42 g; Tumor Volume (mm3) (d 1) ([2]; 786-O nude mice, 25 mg/kg): 106.47 ± 6.86 mm3; Tumor Volume (mm3) (d30) ([2]; 786-O nude mice, 25 mg/kg): 1479.90 ± 458.97 mm3; Inhibition Rate (%) ([2]; 786-O nude mice, 50 mg/kg): 52.14%; Relative Tumor Proliferation Rate (T/C) ([2]; 786-O nude mice, 50 mg/kg): 51.33%; Relative Tumor Volume (RTV) ([2]; 786-O nude mice, 50 mg/kg): 9.76 ± 1.44; Tumor Weight ([2]; 786-O nude mice, 50 mg/kg): 1.02 ± 0.27 g; Tumor Volume (mm3) (d 1) ([2]; 786-O nude mice, 50 mg/kg): 96.82 ± 8.52 mm3; Tumor Volume (mm3) (d30) ([2]; 786-O nude mice, 50 mg/kg): 944.60 ± 112.60 mm3; Inhibition Rate (%) ([2]; 786-O nude mice, 100 mg/kg): 62.49%; Relative Tumor Proliferation Rate (T/C) ([2]; 786-O nude mice, 100 mg/kg): 34.20%; Relative Tumor Volume (RTV) ([2]; 786-O nude mice, 100 mg/kg): 6.18 ± 0.61; Tumor Weight ([2]; 786-O nude mice, 100 mg/kg): 0.80 ± 0.05 g; Tumor Volume (mm3) (d 1) ([2]; 786-O nude mice, 100 mg/kg): 103.26 ± 9.71 mm3; Tumor Volume (mm3) (d30) ([2]; 786-O nude mice, 100 mg/kg): 635.26 ± 78.22 mm3; Relative Tumor Proliferation Rate (T/C) [2, 4]: 34.20%; tumor growth inhibition rate [2, 4]: 62.49%; Relative Tumor Proliferation Rate (T/C) [2, 5]: 73.13%; tumor growth inhibition rate [2, 5]: 35.80%; tumor volume and relative tumor volume compared with the model group ([2]; 786-O, low, medium and high doses, P<0.05): significantly lower; Relative Tumor Proliferation Rate (T/C) [2, 6]: 51.33%; tumor growth inhibition rate [2, 6]: 52.14%; mouse weight compared with the model group ([2]; mouse, in vivo): no significant changes; Body Weight (g) (d1) ([2]; mouse, in vivo, 25 mg/kg): 22.72 ± 0.78 g; Body Weight (g) (d30) ([2]; mouse, in vivo, 25 mg/kg): 23.85 ± 0.89 g; Body Weight (g) (d1) ([2]; mouse, in vivo, 50 mg/kg): 21.43 ± 1.08 g; Body Weight (g) (d30) ([2]; mouse, in vivo, 50 mg/kg): 22.33 ± 1.09 g; Body Weight (g) (d1) ([2]; mouse, in vivo, 100 mg/kg): 22.28 ± 1.72 g; Body Weight (g) (d30) ([2]; mouse, in vivo, 100 mg/kg): 23.43 ± 1.69 g; Inhibition Rate (tumor growth inhibition rate) [3, 7]: 21.68%; Relative Tumor Proliferation Rate (T/C) [3, 7]: 65.48%; Relative Tumor Volume (RTV) [3, 7]: 5.52 ± 4.03; Tumor Volume (d 1) [3, 7]: 186.22 ± 80.26 mm3; Tumor Volume (d 30) [3, 7]: 1326.06 ± 96.10 mm3; Tumor Weight [3, 7]: 1.23 ± 0.70 g; Inhibition Rate (tumor growth inhibition rate) [3, 8]: 41.13%; Relative Tumor Proliferation Rate (T/C) [3, 8]: 49.44%; Relative Tumor Volume (RTV) [3, 8]: 3.77 ± 6.51; Tumor Volume (d 1) [3, 8]: 274.12 ± 83.50 mm3; Tumor Volume (d 30) [3, 8]: 1473.96 ± 798.75 mm3; Tumor Weight [3, 8]: 0.92 ± 0.40 g; Inhibition Rate (tumor growth inhibition rate) [3, 9]: 63.34%; Relative Tumor Proliferation Rate (T/C) [3, 9]: 30.34%; Relative Tumor Volume (RTV) [3, 9]: 3.66 ± 1.35; Tumor Volume (d 1) [3, 9]: 295.39 ± 188.69 mm3; Tumor Volume (d 30) [3, 9]: 974.67 ± 839.14 mm3; Tumor Weight [3, 9]: 0.58 ± 0.52 g; tumor volume and relative tumor volume compared with the model group ([3]; SGC7901, low, medium and high doses, P<0.05): significantly lower; mouse weight compared with the model group ([3]; mouse, in vivo): no significant changes
